Experimental data taken from US20110160121A1, “UNACYLATED GHRELIN AND ANALOGS AS THERAPEUTIC AGENTS FOR VASCULAR REMODELING IN DIABETIC PATIENTS AND TREATMENT OF CARDIOVASCULAR DISEASE” (ALIZE PHARMA SAS, priority 2008, published 2011).
Where no end group is shown, it is not given here.

What was measured:
[1] = tested on: CAC; assay: Expansion and arterial commitment of CAC recovered from UAG-challenged mice, cultured with IL-3; assay type: in vivo, mouse
Method: After treatment, cells were recovered, assayed by FACS analysis, counted and cultured. […] Black lines refer to preimmune IgG used as negative control and grey lines refer to surface marker expression. Similar results were obtained when CAC from untreated diabetic mice as well as untreated or treated wild-type mice were analyzed (data not shown).
RNA isolation and quantitative real-time PCR—CAC from diabetic patients, healthy subjects and mice treated with UAG or saline were cultured in EGM-2 medium. Human arterial and venous cells were used as a positive controls. mRNA quantification was performed by Q-RT-PCR, as previously described (Ref. 24). The relative expression of Ephrin B2, Notch1, Notch4 and EphB4 were calculated by using comparative threshold cycle methods. The human and murine primer sequences used were described (Refs. 25, 26).
Flow Cytometry—To analyze CAC cell-cycle progression, cells recovered from diabetic, healthy subjects, NOD/SCID, ob/ob and wt mice, were cultured in EBM-2 supplemented with IL-3 (10 ng/ml), FACS analysis was performed as previously described (Ref. 20). Cell surface molecules were evaluated by flow cytometry as previously described (Ref. 24). Frequency of marker-positive cells is expressed as mean±standard deviation (SD). […]

[2] = tested on: CAC; assay: CAC senescence (acidic beta-gal / SA-beta-gal activity) in cultured CAC; assay type: cell-based, human; details: FIG. 2A
Method: To this end, the effect of AGE treatment, alone or in combination with UAG, was first evaluated on SA-β-gal activity. […] In addition, AGE-induced p53 accumulation and senescent like-growth arrest were prevented by silencing p53 (FIG. 2C).
CAC Senescence—Senescence was evaluated by acidic β-gal activity on CAC recovered from normal subjects cultured in EGM2 medium for 4 days with UAG or AGE+UAG and saline- or UAG-treated diabetic patients (Ref. 22). Briefly, CAC were washed in phosphate-buffered saline, fixed for 3 min at room temperature in 2% paraformaldehyde, washed, and incubated for 24 h at 37° C. with fresh SA-β-gal stain solution: 1 mg/ml 5-bromo-4-chloro-3-indolyl β-D-galactopyranoside (X-gal), 5 mM/liter potassium ferrocyanide, 5 mM/liter ferricyanide, 150 mM/liter NaCl, 2 mM/liter MgCl2, 0.01% sodium deoxycholate, and 0.02% Nonidet P-40. SA-β-gal-positive cells were counted manually by 3 independent investigators.

[3] = tested on: p53, p21, pRb; assay: Western blot of p53, p21, phospho-Rb in CAC recovered from UAG-treated diabetic patients; design: species or system human; details: type 2 diabetic patients, UAG administered in vivo, CAC recovered after 12 hours; FIG. 2E
Method: After 12 hours of treatment, CAC were recovered from UAG treated and untreated patients and cultured.
All the subjects underwent the following testing session: • UAG (3.0 μg/kg/h iv. as infusion for 12 h from 0 to 12 hours); • isotonic saline (infusion from 0 to 12 hours).
Western Blot Analysis—CAC from healthy donors cultured in the presence of UAG, in combination or not with AGE, and CAC recovered from diabetic patients treated with saline or UAG were lysed. Protein concentration was detected as previously described (Ref. 24). 50 μg of proteins were separated on SDS-polyacrylamide gels and transferred to nitrocellulose membranes. Reaction with anti-p53, anti p21 and anti-phospho-Rb antibodies and detection with an enhanced chemiluminescence detection system (Amersham Biosciences) were performed as described previously (Ref. 20).

[4] = tested on: CAC; assay: CAC cell-cycle progression (percentage of cells in S phase, FACS); assay type: cell-based, human; details: cultured CAC; effect still evident after 7 days of culture; FIG. 1A
Method: First, cell-cycle progression in response to UAG and AG was evaluated. […] To investigate whether this effect relies on inhibition of baseline ROS production, DCF-DA assay was performed. […] H2O2 was used as positive control. AGE-mediated damage signals mainly rely on ROS production (Ref. 29). […] Isolation and Culture of CAC from Peripheral Blood Mononuclear Cells—Peripheral-blood mononuclear cells (PB-MNC) isolated by Fycoll Histopaque 1077 (Sigma) were resuspended in 20% FBS 199 Medium and plated on fibronectin-coated dishes (Biocoat, Becton Dickinson Labware) as described by Hill et al. (Ref. 19). Human UAG studies were performed on CAC recovered from normal donors and diabetic patients. The purity of sorted cells was assessed by FACS analysis (Ref. 20). For experiments, the isolated CAC were cultured under 5% CO2 at 37° C. for 4 days on 20 μg/ml fibronectin-coated dishes in EGM-2 medium containing 10% FBS, hydrocortisone, human Fibroblast Growth Factor, Vascular Endothelial Growth Factor, Insulin Growth Factor 1, ascorbic acid, human Epidermal Growth Factor, gentamicin and amphotericin-B (Cambrex, Walkersville, Md., USA) alone or in combination with 1 μM UAG and 1.2 mg/ml AGE. […] Cell surface molecules were evaluated by flow cytometry as previously described (Ref. 24). Frequency of marker-positive cells is expressed as mean±standard deviation (SD).

[5] = tested on: CAC; assay: Expansion (S phase) of CAC recovered from treated patients, cultured with IL-3; assay type: in vivo, human; details: cells recovered from treated diabetic patients; FIG. 3C
Method: To confirm their vascular features, the cells recovered from patients and controls were cultured with IL-3; which is able to induce expansion and arterial morphogenesis of CD45^+ cells derived from both peripheral blood and BM (Ref. 28).
Flow Cytometry—To analyze CAC cell-cycle progression, cells recovered from diabetic, healthy subjects, NOD/SCID, ob/ob and wt mice, were cultured in EBM-2 supplemented with IL-3 (10 ng/ml), FACS analysis was performed as previously described (Ref. 20). Cell surface molecules were evaluated by flow cytometry as previously described (Ref. 24). Frequency of marker-positive cells is expressed as mean±standard deviation (SD).

[6] = tested on: human arteries; details: Ref. 35; cited from earlier work

## 1-NH2Gly-Ser-Ser-Phe-Leu-Ser-Pro-Glu-His-Gln-Arg-Val-Gln-Gln-Arg-Lys-Glu-Ser-Lys-Lys-Pro-Pro-Ala-Lys-Leu-Gln-Pro-Arg-28 (H-GSSFLSPEHQRVQQRKESKKPPAKLQPR; ends and bridges not checked; listed as Homo sapiens) [UAG]
[1]; CAC from UAG-challenged mice cultured in the presence of IL-3, FIG. 4D
  arterial commitment of recovered CAC: acquire arterial commitment
[1]; CAC from UAG-challenged mice, FIG. 4C
  expansion of recovered CAC: could be expanded
[2]; UAG added to AGE-cultured CAC
  number of SA-beta-gal positive cells: significant reduction in the number of SA-β-gal positive cells
[2]; cultured CAC, UAG alone
  number of senescent cells (SA-beta-gal activity): reduce the number of senescent cells
[3]
  p53 accumulation, phosphorylation of Rb and p21 expression: prevented p53 accumulation, phosphorylation of Rb and p21 expression
[4]
  percentage of cells in S phase: significant increase in the percentage of cells in S phase
[5]
  cell expansion (cells in S phase) with IL-3: underwent cell expansion
[6]
  vasodilator action: have vasodilator actions in human arteries
